From PubChem BioAssay (NCI)
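How tested: cells in 96-well plates exposed to compound for 48 hours at five concentrations. TGI is the concentration that stops growth completely.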

What was measured:
Experiment in all cases: growth of human tumour cells (NCI), 48 h
NCI-H226 lung = tested on: NCI-H226 lung
RPMI-8226 leukemia = tested on: RPMI-8226 leukemia
HT29 colon = tested on: HT29 colon
NCI-H522 lung = tested on: NCI-H522 lung
786-0 renal = tested on: 786-0 renal
SK-MEL-28 melanoma = tested on: SK-MEL-28 melanoma
EKVX NSCLC = tested on: EKVX NSCLC
A549 NSCLC = tested on: A549 NSCLC
SW-620 colon = tested on: SW-620 colon
K-562 leukemia = tested on: K-562 leukemia
SK-MEL-2 melanoma = tested on: SK-MEL-2 melanoma
KM12 colon = tested on: KM12 colon
NCI-H23 lung = tested on: NCI-H23 lung
U251 CNS = tested on: U251 CNS
TK-10 renal = tested on: TK-10 renal
OVCAR-5 ovarian = tested on: OVCAR-5 ovarian
HCC-2998 colon = tested on: HCC-2998 colon
SF-268 CNS = tested on: SF-268 CNS
M19-MEL melanoma = tested on: M19-MEL melanoma
ACHN renal = tested on: ACHN renal
HCT-15 colon = tested on: HCT-15 colon
DLD-1 colon = tested on: DLD-1 colon
HCT-116 colon = tested on: HCT-116 colon
SK-OV-3 ovarian = tested on: SK-OV-3 ovarian
SN12C renal = tested on: SN12C renal
CCRF-CEM leukemia = tested on: CCRF-CEM leukemia
LXFL 529 NSCLC = tested on: LXFL 529 NSCLC
DMS 273 small cell lung = tested on: DMS 273 small cell lung
SNB-78 CNS = tested on: SNB-78 CNS
OVCAR-8 ovarian = tested on: OVCAR-8 ovarian
UO-31 renal = tested on: UO-31 renal
OVCAR-3 ovarian = tested on: OVCAR-3 ovarian
SF-295 CNS = tested on: SF-295 CNS
UACC-62 melanoma = tested on: UACC-62 melanoma
SF-539 CNS = tested on: SF-539 CNS
IGROV1 ovarian = tested on: IGROV1 ovarian
CAKI-1 renal = tested on: CAKI-1 renal
LOX IMVI melanoma = tested on: LOX IMVI melanoma
OVCAR-4 ovarian = tested on: OVCAR-4 ovarian
UACC-257 melanoma = tested on: UACC-257 melanoma
MALME-3M melanoma = tested on: MALME-3M melanoma
MOLT-4 leukemia = tested on: MOLT-4 leukemia
SNB-75 CNS = tested on: SNB-75 CNS
M14 melanoma = tested on: M14 melanoma
KM20L2 colon = tested on: KM20L2 colon
HOP-92 NSCLC = tested on: HOP-92 NSCLC
SNB-19 CNS = tested on: SNB-19 CNS
HOP-62 NSCLC = tested on: HOP-62 NSCLC
NCI-H460 lung = tested on: NCI-H460 lung
RXF 393 renal = tested on: RXF 393 renal
RXF-631 renal = tested on: RXF-631 renal
HL-60(TB) leukemia = tested on: HL-60(TB) leukemia
COLO 205 colon = tested on: COLO 205 colon
A498 renal = tested on: A498 renal
DMS 114 small cell lung = tested on: DMS 114 small cell lung
SK-MEL-5 melanoma = tested on: SK-MEL-5 melanoma
SR leukemia = tested on: SR leukemia

COc1ccc(C2=Nc3ccccc3SC(C)C2)cc1 (stereo not drawn) showed a TGI (NCI-H226 lung) of over 100 µM, a TGI (RPMI-8226 leukemia) of 60.2 µM and a TGI (HT29 colon) of over 100 µM. It also gave a TGI (NCI-H522 lung) of over 100 µM, a TGI (786-0 renal) of over 100 µM and a TGI (SK-MEL-28 melanoma) of over 100 µM. For the same compound, the TGI (EKVX NSCLC) was over 100 µM, the TGI (A549 NSCLC) was over 100 µM and the TGI (SW-620 colon) was over 100 µM. For the same compound, the TGI (K-562 leukemia) was 83.3 µM, the TGI (SK-MEL-2 melanoma) was over 100 µM and the TGI (KM12 colon) was over 100 µM. It also gave a TGI (NCI-H23 lung) of over 100 µM, a TGI (U251 CNS) of over 100 µM and a TGI (TK-10 renal) of over 100 µM. It also gave a TGI (OVCAR-5 ovarian) of over 100 µM, a TGI (HCC-2998 colon) of over 100 µM and a TGI (SF-268 CNS) of over 100 µM. It also gave a TGI (M19-MEL melanoma) of over 100 µM, a TGI (ACHN renal) of over 100 µM and a TGI (HCT-15 colon) of over 100 µM. For the same compound, the TGI (DLD-1 colon) was over 100 µM, the TGI (HCT-116 colon) was 33 µM and the TGI (SK-OV-3 ovarian) was over 100 µM. For the same compound, the TGI (SN12C renal) was over 100 µM, the TGI (CCRF-CEM leukemia) was over 100 µM and the TGI (LXFL 529 NSCLC) was over 100 µM. The TGI (DMS 273 small cell lung) was over 100 µM, the TGI (SNB-78 CNS) was over 100 µM and the TGI (OVCAR-8 ovarian) was over 100 µM. The TGI (UO-31 renal) was over 100 µM, the TGI (OVCAR-3 ovarian) was over 100 µM and the TGI (SF-295 CNS) was over 100 µM. It also gave a TGI (UACC-62 melanoma) of over 100 µM, a TGI (SF-539 CNS) of over 100 µM and a TGI (IGROV1 ovarian) of over 100 µM. The TGI (CAKI-1 renal) was over 100 µM, the TGI (LOX IMVI melanoma) was over 100 µM and the TGI (OVCAR-4 ovarian) was over 100 µM. For the same compound, the TGI (UACC-257 melanoma) was over 100 µM, the TGI (MALME-3M melanoma) was over 100 µM and the TGI (MOLT-4 leukemia) was over 100 µM. The TGI (SNB-75 CNS) was over 100 µM, the TGI (M14 melanoma) was over 100 µM and the TGI (KM20L2 colon) was over 100 µM. For the same compound, the TGI (HOP-92 NSCLC) was over 100 µM, the TGI (SNB-19 CNS) was over 100 µM and the TGI (HOP-62 NSCLC) was over 100 µM. It also gave a TGI (NCI-H460 lung) of over 100 µM, a TGI (RXF 393 renal) of over 100 µM and a TGI (RXF-631 renal) of over 100 µM. It also gave a TGI (HL-60(TB) leukemia) of over 100 µM, a TGI (COLO 205 colon) of over 100 µM and a TGI (A498 renal) of over 100 µM. For the same compound, the TGI (DMS 114 small cell lung) was over 100 µM.

CNC(=S)N/N=C1\CC(c2ccccc2)Oc2ccccc21 (stereo not drawn) gave a TGI (NCI-H226 lung) of over 100 µM, a TGI (HT29 colon) of over 100 µM and a TGI (NCI-H522 lung) of over 100 µM. It also gave a TGI (786-0 renal) of over 100 µM, a TGI (SK-MEL-28 melanoma) of over 100 µM and a TGI (EKVX NSCLC) of over 100 µM. The TGI (A549 NSCLC) was over 100 µM, the TGI (SW-620 colon) was over 100 µM and the TGI (K-562 leukemia) was over 100 µM. It also gave a TGI (SK-MEL-2 melanoma) of over 100 µM, a TGI (KM12 colon) of over 100 µM and a TGI (NCI-H23 lung) of over 100 µM. For the same compound, the TGI (U251 CNS) was over 100 µM, the TGI (TK-10 renal) was over 100 µM and the TGI (OVCAR-5 ovarian) was over 100 µM. For the same compound, the TGI (HCC-2998 colon) was over 100 µM, the TGI (SK-MEL-5 melanoma) was over 100 µM and the TGI (SF-268 CNS) was over 100 µM. For the same compound, the TGI (M19-MEL melanoma) was over 100 µM, the TGI (ACHN renal) was over 100 µM and the TGI (DLD-1 colon) was over 100 µM. For the same compound, the TGI (HCT-116 colon) was over 100 µM, the TGI (SK-OV-3 ovarian) was over 100 µM and the TGI (SN12C renal) was over 100 µM. The TGI (CCRF-CEM leukemia) was over 100 µM, the TGI (LXFL 529 NSCLC) was over 100 µM and the TGI (DMS 273 small cell lung) was over 100 µM. It also gave a TGI (SNB-78 CNS) of over 100 µM, a TGI (OVCAR-8 ovarian) of over 100 µM and a TGI (SR leukemia) of over 100 µM. For the same compound, the TGI (UO-31 renal) was over 100 µM, the TGI (OVCAR-3 ovarian) was over 100 µM and the TGI (SF-295 CNS) was over 100 µM. The TGI (UACC-62 melanoma) was over 100 µM, the TGI (SF-539 CNS) was over 100 µM and the TGI (IGROV1 ovarian) was over 100 µM. It also gave a TGI (CAKI-1 renal) of over 100 µM, a TGI (LOX IMVI melanoma) of over 100 µM and a TGI (OVCAR-4 ovarian) of over 100 µM. The TGI (MALME-3M melanoma) was over 100 µM, the TGI (MOLT-4 leukemia) was over 100 µM and the TGI (SNB-75 CNS) was over 100 µM. For the same compound, the TGI (M14 melanoma) was over 100 µM, the TGI (HOP-92 NSCLC) was over 100 µM and the TGI (SNB-19 CNS) was over 100 µM. It also gave a TGI (NCI-H460 lung) of over 100 µM, a TGI (RXF 393 renal) of over 100 µM and a TGI (COLO 205 colon) of over 100 µM.
